Experimental findings from US9833497B2, “Human originated EGF domain proteins and use of the same” (CHENGDU SOURCEBIO LIMITED-LIABILITY COMPANY, priority 2013, dated 2017) are described below.

What all share (format): cell-based
One test relates to E. coli BL21. The experiment in a line: MIC against Gram-negative bacteria: E. coli BL21. Put shortly: (§1)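 Antibacterial activity of purified human EGF domain proteins: two-fold concentration series, triplicate wells, LB broth, 5×10^5 CFU/mL bacteria, 37° C shaking incubation. The lowest concentration without growth defines the MIC.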
Another test concerns Serratia marcescens. Kind of test: MIC against Gram-negative bacteria: Serratia marcescens. The essentials:
as §1

The subject of the next test is Klebsiella pneumonia. Kind of test: MIC against Gram-negative bacteria: Klebsiella pneumonia. Put shortly: as §1
Another test has as its system Proteus vulgaris. The experiment in a line: MIC against Gram-negative bacteria: Proteus vulgaris. The essentials:
as §1

Another test deals with Citrobacter diversus. The experiment in a line: MIC against Gram-negative bacteria: Citrobacter diversus. Put shortly:
as §1

The test system of a further test is Moraxella catarrhalis. Kind of test: MIC against Gram-negative bacteria: Moraxella catarrhalis. The essentials: as §1
The test system of a further test is Enterobacter cloacae. The experiment in a line: MIC against Gram-negative bacteria: Enterobacter cloacae. The essentials:
as §1

The next test deals with Proteus mirabilis. Kind of test: MIC against Gram-negative bacteria: Proteus mirabilis. Put shortly:
as §1

The next test concerns Pseudomonas aeruginosa. The experiment in a line: MIC against Gram-negative bacteria: Pseudomonas aeruginosa. Put shortly:
as §1

The next test has as its system Aeromonas hydrophila. Kind of test: MIC against Gram-negative bacteria: Aeromonas hydrophila. The essentials:
as §1

Another test has as its system E. coli DH5α. The experiment in a line: Antibacterial activity: MIC and growth curve against E. coli DH5α in 96-well plate. The note with it: minimal inhibitory concentration against E. coli DH5α; 96-well plate, 5×10^5 CFU/mL, 37° C., judged after 8 h. Put shortly:
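Log-phase bacteria (OD600 ~0.5) resuspended in LB at 5×10^5 CFU/mL, exposed to recombinant protein at 50, 25, 12.5 μg/mL final in triplicate, 37 °C shaking at 175 rpm. OD600 read every 30 min; MIC is lowest concentration showing no growth.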

Where [1] appears, read: 96-well plate, 5×10^5 CFU/mL, 37° C., 10 h.

The term MIC denotes the least concentration at which growth counts as inhibited. A higher MIC goes with a need for much substance. For “PRT1000 (ELGGCISAPCAHGGTCYPQPSGYNCTCPTGYTGPTCS; listed as Homo sapiens)”, the MIC with E. coli BL21 (E. coli BL21, 10 h cultivation at 37° C.) worked out at 12.5 µg/mL; against Serratia marcescens (S. marcescens, 10 h cultivation at 37° C.), 50 µg/mL; in the test on Klebsiella pneumonia (K. pneumonia, 10 h cultivation at 37° C.), 25 µg/mL; against Proteus vulgaris (P. vulgaris, 10 h cultivation at 37° C.), 25 µg/mL; against Citrobacter diversus (C. diversus, 10 h cultivation at 37° C.), 50 µg/mL; with Moraxella catarrhalis (M. catarrhalis, 10 h cultivation at 37° C.), 25 µg/mL. Moreover, the minimum inhibitory concentration (MIC) worked out at 12.5 µg/mL in the test on Enterobacter cloacae (E. cloacae, 10 h cultivation at 37° C.); 12.5 µg/mL in the test on Proteus mirabilis (P. mirabilis, 10 h cultivation at 37° C.); 50 µg/mL with Pseudomonas aeruginosa (P. aeruginosa, 10 h cultivation at 37° C.); 25 µg/mL against Aeromonas hydrophila (A. hydrophila, 10 h cultivation at 37° C.); 50 µg/mL in the test on E. coli DH5α.

Take “PRT627 (CTCNPAGSLDTCDPRSGRCPCKENVEGNLCDRCRPGTFNLQPHNPAGCSS; listed as Homo sapiens)”: the “MIC E. coli BL21” value in the test with E. coli BL21 (setting [1]) was found to be 25 µg/mL. Also, the “MIC S. marcescens” value against Serratia marcescens (setting [1]) amounted to 50 µg/mL. Further, in the test on Klebsiella pneumonia (setting [1]), the “MIC K. pneumonia” value is 12.5 µg/mL. In addition, the “MIC P. vulgaris” value against Proteus vulgaris (setting [1]) amounted to 12.5 µg/mL. In the test on Citrobacter diversus (setting [1]), the “MIC C. diversus” value is 12.5 µg/mL. For the same substance, in the test with Moraxella catarrhalis (setting [1]), the “MIC M. catarrhalis” value amounted to 12.5 µg/mL. In addition, the “MIC E. cloacae” value with Enterobacter cloacae (setting [1]) was 12.5 µg/mL. In the test on Proteus mirabilis (setting [1]), the “MIC P. mirabilis” value worked out at 50 µg/mL. Moreover, the “MIC P. aeruginosa” value in the test on Pseudomonas aeruginosa (setting [1]) amounted to 12.5 µg/mL. Further, the “MIC A. hydrophila” value in the test on Aeromonas hydrophila (setting [1]) was 12.5 µg/mL. In the test with E. coli DH5α, this substance displayed an MIC of 12.5 µg/mL.

On to “PRT1272 (DVDECVEGTDNCHIDAICQNTPRSYKCICKSGYTGDGKHCK; listed as Homo sapiens)”, for which the “MIC against E. coli BL21” value against E. coli BL21 (E. coli BL21, 96-well plate, 5×10^5 CFU/mL, 37° C., 10 h) came out at 50 µg/mL. Moreover, the “MIC against S. marcescens” value against Serratia marcescens (Serratia marcescens, 96-well plate, 5×10^5 CFU/mL, 37° C., 10 h) came to 50 µg/mL. Also, the “MIC against K. pneumonia” value against Klebsiella pneumonia (Klebsiella pneumonia, 96-well plate, 5×10^5 CFU/mL, 37° C., 10 h) was 50 µg/mL. Moreover, the “MIC against P. vulgaris” value in the test with Proteus vulgaris (Proteus vulgaris, 96-well plate, 5×10^5 CFU/mL, 37° C., 10 h) was determined as 12.5 µg/mL. For the same substance, the “MIC against C. diversus” value in the test on Citrobacter diversus (Citrobacter diversus, 96-well plate, 5×10^5 CFU/mL, 37° C., 10 h) turned out to be 50 µg/mL. Moreover, in the test on Moraxella catarrhalis (Moraxella catarrhalis, 96-well plate, 5×10^5 CFU/mL, 37° C., 10 h), the “MIC against M. catarrhalis” value stood at 12.5 µg/mL. The “MIC against E. cloacae” value against Enterobacter cloacae (Enterobacter cloacae, 96-well plate, 5×10^5 CFU/mL, 37° C., 10 h) was found to be 25 µg/mL. Further, the “MIC against P. mirabilis” value with Proteus mirabilis (Proteus mirabilis, 96-well plate, 5×10^5 CFU/mL, 37° C., 10 h) was found to be 50 µg/mL. The “MIC against P. aeruginosa” value against Pseudomonas aeruginosa (Pseudomonas aeruginosa, 96-well plate, 5×10^5 CFU/mL, 37° C., 10 h) was 100 µg/mL. Moreover, the “MIC against A. hydrophila” value in the test on Aeromonas hydrophila (Aeromonas hydrophila, 96-well plate, 5×10^5 CFU/mL, 37° C., 10 h) came to 12.5 µg/mL. In the test on E. coli DH5α, this substance yielded a minimal inhibitory concentration (MIC) of 25 µg/mL.

Regarding “PRT773 (PSNPCQDDPCADNSLCVKLHNTSFCLCLEGYYYNSSTCK; listed as Homo sapiens)”, the “MIC (μg/mL) E. coli BL21” value against E. coli BL21 (E. coli BL21, 10 h cultivation at 37° C., 5×10^5 CFU/mL) came to 25 µg/mL. The “MIC (μg/mL) S. marcescens” value in the test on Serratia marcescens (S. marcescens, 10 h cultivation at 37° C., 5×10^5 CFU/mL) came out at 12.5 µg/mL. Further, the “MIC (μg/mL) K. pneumonia” value against Klebsiella pneumonia (K. pneumonia, 10 h cultivation at 37° C., 5×10^5 CFU/mL) is 50 µg/mL. The “MIC (μg/mL) P. vulgaris” value against Proteus vulgaris (P. vulgaris, 10 h cultivation at 37° C., 5×10^5 CFU/mL) worked out at 50 µg/mL. Also, in the test on Citrobacter diversus (C. diversus, 10 h cultivation at 37° C., 5×10^5 CFU/mL), the “MIC (μg/mL) C. diversus” value was 12.5 µg/mL. Moreover, in the test with Moraxella catarrhalis (M. catarrhalis, 10 h cultivation at 37° C., 5×10^5 CFU/mL), the “MIC (μg/mL) M. catarrhalis” value was determined as 50 µg/mL. Further, in the test on Enterobacter cloacae (E. cloacae, 10 h cultivation at 37° C., 5×10^5 CFU/mL), the “MIC (μg/mL) E. cloacae” value amounted to 12.5 µg/mL. Also, the “MIC (μg/mL) P. mirabilis” value against Proteus mirabilis (P. mirabilis, 10 h cultivation at 37° C., 5×10^5 CFU/mL) is 12.5 µg/mL. For the same substance, the “MIC (μg/mL) P. aeruginosa” value against Pseudomonas aeruginosa (P. aeruginosa, 10 h cultivation at 37° C., 5×10^5 CFU/mL) was determined as 12.5 µg/mL. For the same substance, in the test with Aeromonas hydrophila (A. hydrophila, 10 h cultivation at 37° C., 5×10^5 CFU/mL), the “MIC (μg/mL) A. hydrophila” value stood at 50 µg/mL. The same substance registered a minimum inhibitory concentration (MIC) in the test with E. coli DH5α of 50 µg/mL.

As for “PRT594 (CACNNNIDVTDPESCSRVTGECLRCLHNTQGANCQLCKPGHYGSALNQTCRR; listed as Homo sapiens)”, in the test with E. coli BL21 (setting [1]), the “MIC E. coli BL21” value came to 25 µg/mL. Besides, in the test with Serratia marcescens (setting [1]), the “MIC S. marcescens” value was determined as 50 µg/mL. The “MIC K. pneumonia” value against Klebsiella pneumonia (setting [1]) was found to be 12.5 µg/mL. Further, in the test with Proteus vulgaris (setting [1]), the “MIC P. vulgaris” value came out at 12.5 µg/mL. Also, in the test with Citrobacter diversus (setting [1]), the “MIC C. diversus” value was 50 µg/mL. Moreover, in the test with Moraxella catarrhalis (setting [1]), the “MIC M. catarrhalis” value came out at 12.5 µg/mL. Besides, the “MIC E. cloacae” value against Enterobacter cloacae (setting [1]) was 50 µg/mL. For the same substance, in the test on Proteus mirabilis (setting [1]), the “MIC P. mirabilis” value is 50 µg/mL. For the same substance, the “MIC P. aeruginosa” value with Pseudomonas aeruginosa (setting [1]) amounted to 50 µg/mL. The “MIC A. hydrophila” value with Aeromonas hydrophila (setting [1]) is 12.5 µg/mL. In addition, in the test on E. coli DH5α, the MIC was 12.5 µg/mL.
